# From patent US9359451B2, “Methods and compositions for treating trauma-hemorrhage using estrogen and derivatives thereof” (THE UAB RESEARCH FOUNDATION, priority 2012, dated 2016)
# Key:
# [1] = system: Male Sprague Dawley rats; test: 6 hour survival after soft tissue trauma and 60% hemorrhage without resuscitation; assay type: in vivo, rat; conditions: for survival from 60% blood loss: FIG. 47, 6 hour interval after MBO, all saline vehicle controls died; for survival from 60% blood loss / survival percentage for 6 hr: no resuscitation
# Experimental: Note that experimental conditions were sufficiently stringent that all saline vehicle control hemorrhaged rats died. The number of subject rats was vehicle control-20, E2-SO4-21, and EE3-SO4-20. Note that the time to begin the 6 hour interval starts after the maximum bleed out (MBO). It takes approximately 45 minutes to attain the MBO. Also please note that no resuscitation is given for the duration of the 6 hour test.
# Survival studies with ethinyl 17α-estradiol-3-sulfate (EE3-SO4) in rats subjected to soft tissue trauma and 60% hemorrhage were performed as has been described for E2-SO4 and E2-cyclodextrin. Briefly, Male Sprague Dawley rats were anesthetized with isoflurane and received a 5 cm laparotomy. Cannulation was performed of 2 femoral arteries (one for bleeding and the one for blood pressure monitoring) and one femoral vein to administer drug or saline. Rats were bled to 62.9% total blood volume within 45 min with a mean arterial blood pressure of 40 mmHg achieved in 10 min and maintained at the pressure throughout the bleeding procedure. At the point of maximum bleed out (MBO), estrogen compounds were administered. Survival was monitored for 6 hours following MBO.
# The optimum dose of EE-3-SO4 to promote rat survival for 6 hr was determined. The doses of 0.1 mg/kg (n=6), 0.3 mg/kg (n=6), 1.0 mg/kg (n=7) and 3.0 mg/kg (n=6) were used. The respective survival percentages were 16%, 50%, 87% and 50%, respectively (FIG. 41). Vehicle controls were matched for each group and the numbers of test rats were identical as well. No vehicle controls of any group survived for 6 hr (i.e., 100% death).
# [2] = system: mean arterial blood pressure (MAP); test: Mean arterial blood pressure spike after iv administration in hemorrhaged rats; assay type: in vivo, rat; conditions: for “spike” in mean arterial blood pressure (MAP) just after administration: rapid iv injection in ~1 min at MBO
# Excerpt: An additional practical matter to be resolved was removing or dampening the ever-present “spike” in mean arterial blood pressure (MAP) observed just after administration of EE-3-SO4, which was also observed with E2-CD and E2-SO4. Because this could be a threat to the hemorrhage patient by having this transient pressure rise destabilize and eject nascent hemostatic “plugs” in damaged vessels, a solution was developed for the potential problem. By giving the iv bolus of […] in a slightly longer interval over 5 min starting at MBO rather than a more rapid injection in ˜1 min (i.e., a “slow push”), the benefits of EE-3-SO4 remained while the MAP “spike” was removed. To determine the maximum reduction in the blood pressure spike studies were further conducted with a push over a 10 min period.
# [3] = system: Sprague-Dawley adult male rats; test: Traumatic brain injury (lateral fluid percussion): ICP, CPP and pbtO2 monitoring; assay type: in vivo, rat; conditions: for intracranial pressure vs untreated vehicle controls: FIG. 44, measured over a 120 min period
# Experimental: Sprague-Dawley adult male rats were divided into 4 groups: vehicle, E2-SO4 (1 mg/kg), sham+vehicle and sham+E2-SO4; n=5/group. The TBI model was lateral fluid percussion injury (LFP), induced via a hydraulic pressure pulse to the anesthetized rat's exposed brain. This was introduced through a burr hole in the lateral skull prepared one day prior to LFP. A single iv dose of E2-SO4 or saline vehicle was administered 1 hr after LFP. Physiological parameters were measured 24 hr post-injury.
# (§1) In a second experiment, the efficacy of E2-SO4 treatment for TBI in a lateral fluid percussion (LFP) model was examined. This involved 6 groups of rats (n=5/group). All rats received a craniectomy. Groups 1, 2, 4 and 5 received LFP injury. Groups 1 and 4 were treated with E2 (1 mg/kg) 1 hr post-injury, groups 2 and 5 were vehicle (Veh)-treated and groups 3 and 6 were sham. Groups 1-3 underwent intracranial pressure (ICP), cerebral perfusion pressure (CPP) and partial oxygen pressure (pbtO2) monitoring. Groups 4-6 underwent fludoexoyglucose (FDG)-PET/CT and diffusion tensor imaging (DTI) analysis on days 1 and 7 post-induction. Relative standard uptake values (SUV) of upper half of brain to central value, fractional anisotropy (FA) and apparent diffusion coefficient (ADC) maps were calculated.
# FIG. 48B is a plot of cerebral perfusion pressure, which is a derivative of mean arterial pressure less ICP. […] The X axis is shown for an extended 2 hours to confirm stability for the various probes used.
# The clinical manifestation of edema after TBI can be seen as increased intracranial pressure, with lower brain perfusion pressure and reduced oxygen tension. […] FIG. 44 compares treatments for TBI with hormones, measured over a 120 min period to control the effects of the invasive probe on pressures. The treatments are progesterone (T+progesterone: magenta), progesterone plus E2-SO4 (T+E+P: brown), E2-SO4 (T+E2SO4: red) and EE-3-SO4 (T+EE-3SO4: yellow).
# [4] = system: injured brain; test: Traumatic brain injury: FDG-PET/CT, diffusion tensor imaging and MRI edema; assay type: in vivo, rat; conditions: FIG. 43; day 1 and day 7 vs saline vehicle
# Experimental: as §1
# Rats were either treated with E2 or a saline vehicle control, where treatment is administered 1 hour after injury. […] The former is the area of deranged nerves, while the latter constitutes intact nerves.
# [5] = system: isolated vascular rings; test: Vascular reactivity of isolated vascular rings in a physiological bath; parameters: species or system rat or pig
# Experimental: Data to delineate the mechanism of action for EE-3-SO4 vis-à-vis effects on the cardiovascular system was acquired. While it is well known that estrogens act on the vascular system by a variety of mechanisms including vasorelaxation per se, specific confirmation of this fact for EE-3-SO4 was needed. […] Vessels are contracted by a variety of agents (i.e., endothelin-1, phenylephrine). The action(s) are measured with a force transducer and recorded digitally. […] (see FIG. 42).
# [6] = system: Male SD rats; test: Survival and blood pressure after trauma-hemorrhage with 60% blood loss and no fluid resuscitation; assay type: in vivo, rat; conditions: FIG. 21; trauma and major blood loss, crystalloid resuscitation after initial 3-hour interval; all untreated controls died within 3 hours
# Experimental: 16 rats were subjected to 60% removal of blood volume, using the same protocol found in Example 5.
# Furthermore, crystalloid fluid resuscitation was administered following an initial 3-hour interval after the trauma and major blood loss, and rats were followed for 7 days. It has been observed that rats which survive for the initial 3 hours uniformly go on to survive for prolonged period of time and were then sacrificed. The survival rate is 68% for estrogen-treated rats, while all untreated control rats have died within the initial 3-hour interval (see FIG. 21).
# Although E2 administration after trauma-hemorrhage (T-H) and fluid resuscitation produces salutary effects on organ functions, it was not known if E2 has any beneficial effects after major blood loss in the absence of fluid resuscitation. Male SD rats ˜250 g) underwent T-H (tissue trauma, BP 40 mmHg in 10 min and maintained at that BP by further blood withdrawal until maximum bleed out (MBO, 60% of total blood volume) occurred (45:t5 min)). E2 i.v. (1 mg/Kg, 0.4 ml/Kg volume, i.e., 120 μL/300 g body weight) or vehicle (cyclodextrin, CD) was then infused. No additional fluid was given for 3 hours. If rats survived, they received Ringer's lactate, 4× the MBO volume. A custom-fabricated 31p coil was placed on the surface of the rat's liver after laparotomy in another group, and spectra acquired using 4.7T NMR spectroscopy via a 31p coil in real time before and during hemorrhagic shock. Shock increased phosphomonoester and Pi with a concomitant decrease in β-ATP in both groups.
molecule,measurement,setting,value
"C[C@]12CC[C@@H]3c4ccc(OS(=O)(=O)O)cc4CC[C@H]3[C@@H]1CC[C@@H]2OS(=O)(=O)O [E2-SO4, 17-β-estradiol 3, 17 disulfate]",survival from 60% blood loss,[1],66%
same,“spike” in mean arterial blood pressure (MAP) just after administration,[2],also observed
same,intracranial pressure vs untreated vehicle controls,[3],greatly reduce the pressure
same,pbtO2 (brain tissue oxygen partial pressure),"[3]; TBI (LFP), 1 mg/kg iv 1 hr after injury, 24 hr post-injury, vehicle 15.8±1.3, sham 39.6",34.1±1.6 mmHg
same,ICP (intracranial pressure),"[3]; TBI (LFP), 1 mg/kg iv 1 hr after injury, measured 24 hr post-injury, TBI vehicle 17.4±0.5, sham 4.7",7±0.4 mmHg
same,edema in the injured brain,[4],can reduce edema in the injured brain
"C#C[C@]1(O)CC[C@H]2[C@@H]3CCc4cc(OS(=O)(=O)O)ccc4[C@H]3CC[C@@]21C [EE-3-SO4, ethinyl 17α-estradiol-3-sulfate]",survival percentage for 6 hr,"[1]; 0.1 mg/kg at MBO, no vehicle controls survived",16%
same,survival percentage for 6 hr,[1]; 0.3 mg/kg at MBO,50%
same,survival percentage for 6 hr,[1]; 1.0 mg/kg at MBO,87%
same,survival percentage for 6 hr,[1]; 3.0 mg/kg at MBO,50%
same,survival from 60% blood loss,[1],80%
same,survival from 60% blood loss,[1]; listed as EE3-SO4,exhibits enhanced survival as compared to E2-sulfate
same,optimum dose to promote rat survival for 6 hr,"[1]; doses 0.1, 0.3, 1.0 and 3.0 mg/kg tested",1.0 mg/kg
same,reduction in the blood pressure spike with slow push,"[2]; iv bolus over 5 min starting at MBO, no further benefit at 10 minutes",complete reduction at 5 minutes
same,“spike” in mean arterial blood pressure (MAP) just after administration,[2],observed
same,potency on a molar equivalent basis,"[5]; FIG. 42, compared with E2-SO4",more potent than E2-SO4
same,range of doses with linear response in promoting vessel relaxation,"[5]; vessels contracted by endothelin-1 or phenylephrine, Kreb's buffer",10 to 100000 nM
same,intracranial pressure vs untreated vehicle controls,[3],greatly reduce the pressure
same,edema in the injured brain,[4],can reduce edema in the injured brain
CN[C@@H](CCCNC(=N)N)C(=O)O [methyl arginine],antagonism of EE-3-SO4's vessel relaxation,[5]; antagonist added to EE-3-SO4,relaxation can be inhibited
CC(=O)[C@H]1CC[C@H]2[C@@H]3CCC4=CC(=O)CC[C@]4(C)[C@H]3CC[C@]12C [progesterone],intracranial pressure vs untreated vehicle controls,[3],greatly reduce the pressure
estrogen,survival rate,[6],68%
